According to US8741951B2, “Non-steroidal compounds for androgen receptor modulation” (CNR—Consiglio Nazionale delle Ricerche, priority 2009, dated 2014):

Key:
LNCaP-AR cells = assay: SRB in vitro chemosensitivity assay, LNCaP-AR; type: cell-based
Method: The cell lines were maintained as a monolayer at 37° C. and subcultured weekly. Culture medium was composed of RPMI 1640 supplemented with 10% fetal calf serum and 1% glutamine (Mascia Brunelli s.p.a., Milan, Italy). Cells were used in the exponential growth phase in all the experiments.
Compounds were dissolved in acetone or DMSO (AITES) ([…]) and stored at −20° C. The cell culture containing acetone at the highest concentration was used as the control.
Sulforhodamine B (SRB) assay was used according to the method by Skehan et al. (JNCI, 1990). Briefly, cells were collected by trypsinization, counted and plated at a density of 5,000 cells/well in 96-well flat-bottomed microtiter plates (100 μl of cell suspension/well). In the chemosensitivity assay, experiments were run in octuplicate, and each experiment was repeated three times. The optical density (OD) of cells was determined at a wavelength of 490 nm by a colorimetric plate reader.
If ODtreated is above ODzero, treatment has induced a cytostatic effect, whereas if ODtreated is below ODzero, cell killing has occurred. The ODzero depicts the cell number at the moment of drug addition, the ODcontrol reflects the cell number in untreated wells and the ODtreated reflects the cell number in treated wells on the day of the assay.
FIGS. 2-11 show the cytotoxic activity of the derivative compounds of the invention on the LNCaP and LNCaP-AR cell lines. The authors examined the antitumour activity of the compounds for which the synthesis is described above, in the hormone-sensitive prostate cancer cell line LNCaP and in its derivative cell line LNCaP-AR, expressing high level of AR and with hormone refractory prostate cancer (HRPC) features. The novel compounds were tested at the increasing concentrations of […], 0.2, 2.0, and 20.0 μM. The highest dose used was chosen on the basis of the clinically achievable peak plasma concentration reported in the literature for bicalutamide (Cockshott I D. Clin Pharmacokinet. 2004; 43(13): 855-78). After 144-hr exposure time the cytotoxic effect of the molecules was calculated according to the method of Monks et al. (Monks A, Scudiero D, Skehan P, et al. Feasibility of a high-flux anticancer drug screen using a diverse panel of cultured human tumor cell lines. J Natl Cancer Inst. 1991; 83: 757-66.)

[1] = biological target: T1, human androgen receptor (hAR) (Homo sapiens, UniProt P10275); assay: hAR transactivation assay (ARE-luc) in Cos-7 cells; type: cell-based
T1 construct: expressed in transfected cells; host or cells: Cos-7
T1 sequence (P10275 1-920): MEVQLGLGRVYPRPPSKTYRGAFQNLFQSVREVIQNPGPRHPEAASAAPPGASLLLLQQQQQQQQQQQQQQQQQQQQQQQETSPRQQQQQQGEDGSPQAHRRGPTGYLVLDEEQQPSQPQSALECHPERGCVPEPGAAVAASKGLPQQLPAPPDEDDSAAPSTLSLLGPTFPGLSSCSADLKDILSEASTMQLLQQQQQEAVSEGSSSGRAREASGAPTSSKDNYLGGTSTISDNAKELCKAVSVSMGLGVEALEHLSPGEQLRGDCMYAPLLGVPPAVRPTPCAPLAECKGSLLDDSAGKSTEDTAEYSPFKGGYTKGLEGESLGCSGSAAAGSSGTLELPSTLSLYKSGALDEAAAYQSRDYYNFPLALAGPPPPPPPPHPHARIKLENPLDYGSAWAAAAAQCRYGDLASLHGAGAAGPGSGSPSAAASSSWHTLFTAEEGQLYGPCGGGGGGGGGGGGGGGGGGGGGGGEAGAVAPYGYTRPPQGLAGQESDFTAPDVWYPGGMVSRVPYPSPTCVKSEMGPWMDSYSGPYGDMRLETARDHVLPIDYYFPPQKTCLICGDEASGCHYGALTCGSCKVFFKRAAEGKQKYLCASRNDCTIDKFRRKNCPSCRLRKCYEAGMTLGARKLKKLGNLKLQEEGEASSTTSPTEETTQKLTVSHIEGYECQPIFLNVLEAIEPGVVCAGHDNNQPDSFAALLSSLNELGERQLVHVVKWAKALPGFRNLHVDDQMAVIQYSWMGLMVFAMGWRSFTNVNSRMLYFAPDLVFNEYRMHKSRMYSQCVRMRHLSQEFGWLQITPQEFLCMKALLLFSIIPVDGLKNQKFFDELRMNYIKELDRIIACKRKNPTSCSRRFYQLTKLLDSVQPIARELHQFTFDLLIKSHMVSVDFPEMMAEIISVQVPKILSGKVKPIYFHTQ
Source text: The cDNA coding hAR was cloned into the pSG5 expression vector as reported previously [Chang, C. S., J. Kokontis, and S. T. Liao 1988 Molecular cloning of human and rat complementary DNA encoding androgen receptors Science 240:324-326].
The 3416 construct (ARE-Luc), containing four copies of the wild-type slp-HRE2 (5′-TGGTCAgccAGTTCT-3′) was cloned in the NheI site in pTK-TATA-Luc [Verrijdt, G., E. Schoenmakers, A. Haelens, B. Peeters, G. Verhoeven, W. Rombauts, and F. Claessens 2000 Change of specificity mutations in androgen selective enhancers J. Biol. Chem. 275:12298-12305].
For androgen-stimulated transcriptional analysis, 32×10^4 Cos-7 cells were plated in phenol red-free DMEM containing 5% charcoal-stripped serum. After 48 h, the cells were transfected by Superfect (Qiagen) with 0.3 μg of 3416-pTK-TATA-Luc construct, together with 1.5 μg of either pSG5-empty plasmid or pSG5-hAR expressing plasmid. […] When indicated, the synthetic compounds were added alone to the cell medium. […] It was dissolved in 0.001% (final concentration) ethanol. Control cells were treated with the vehicle alone. Lysates were prepared and the luciferase activity was measured using a luciferase assay system (Promega). The results were corrected using CH110-expressed beta-galactosidase activity (Amersham Biosciences) and luciferase activity was expressed as fold induction. Results were obtained from two or three different experiments, each performed in duplicate. Mean and SEM are shown.

N#Cc1ccc(NC(=O)[C@](O)(Cc2cccs2)CS(=O)(=O)c2ccc(F)cc2)cc1C(F)(F)F [(R)-XXIII-6]
GI50 (LNCaP-AR cells; Homo sapiens, LNCaP/AR, 144 h): 9.8 µM
LC50 (LNCaP-AR cells; LNCaP-AR cells, 144 h exposure, up to 20 μM): n.r.
cytotoxic effect (cytostatic / cytocidal), in words (LNCaP-AR cells; LNCaP-AR, 144 h, up to 20 μM): suppress completely the cell growth
inhibition of R1881-induced AR transcriptional activation (antagonistic activity), in words ([1]; compound 10 μM with 10 nM R1881): antagonistic activity
agonistic activity on AR transcription, in words ([1]; compound alone, 10 nM to 1 μM or 10 μM): does not seem to display agonistic activity
